From US10131652B2, “Pyrimidinyloxy benzene derivatives as herbicides” (E. I. DU PONT DE NEMOURS AND COMPANY, priority 2014, dated 2018)
Like-named read-outs stand apart in the source and are kept apart here.

What was measured:
Test in all cases: Test D pre-/postemergence plant response
Format in all cases: in vivo
[1] = tested on: galium (catchweed bedstraw, Galium aparine); details: Galium, pre-emergence, Preemergence, scale 0 to 100 (0 no effect, 100 complete control), read-out: Plant response rating, Galium
From the text: (§1) Seeds of plant species selected from blackgrass (Alopecurus myosuroides), Italian ryegrass (Lolium multiflorum), winter wheat (Triticum aestivum), galium (catchweed bedstraw, Galium aparine), corn (Zea mays), large (Lg) crabgrass (Digitaria sanguinalis), giant foxtail (Setaria faberii), johnsongrass (Sorghum halepense), lambsquarters (Chenopodium album), morningglory (Ipomoea coccinea), yellow nutsedge (Cyperus esculentus), pigweed (Amaranthus retroflexus), ragweed (common ragweed, Ambrosia elatior), soybean (Glycine max), bamyardgrass (Echinochloa crus-galli), oilseed rape (Brassica napus), waterhemp (common waterhemp, Amaranthus rudis), and velvetleaf (Abutilon theophrasti) were planted into a blend of loam soil and sand and treated preemergence with test chemicals formulated in a non-phytotoxic solvent mixture which included a surfactant. At the same time, plants selected from these crop and weed species and also kochia (Kochia scoparia), wild oat (Avena fatua), and chickweed (common chickweed, Stellaria media) were planted in pots containing Redi-Earth® planting medium (Scotts Company, 14111 Scottslawn Road, Marysville, Ohio 43041) comprising spaghnum peat moss, vermiculite, wetting agent and starter nutrients and treated with postemergence applications of test chemicals formulated in the same manner. Plants ranged in height from 2 to 18 cm (1- to 4-leaf stage) for postemergence treatments. Treated plants and controls were maintained in a greenhouse for 13 to 15 days, after which time all species were compared to controls and visually evaluated. Plant response ratings, summarized in Table D, are based on a scale of 0 to 100 where 0 is no effect and 100 is complete control. A dash (-) response means no test result.

[2] = tested on: velvetleaf (Abutilon theophrasti); details: Abutilon theophrasti; for pest or weed control at 16 g/ha: 16 g ai/ha; for pest or weed control at 31 g/ha: 31 g ai/ha; for pest or weed control at 62 g/ha: 62 g ai/ha; for pest or weed control at 125 g/ha: 125 g ai/ha
From the text: as §1

[3] = tested on: yellow nutsedge (Cyperus esculentus); details: Cyperus, pre-emergence, Preemergence
From the text: as §1

[4] = tested on: winter wheat (Triticum aestivum); details: Triticum aestivum; for plant injury at 16 g/ha: 16 g ai/ha; for plant injury at 31 g/ha: 31 g ai/ha; for plant injury at 62 g/ha: 62 g ai/ha; for plant injury at 125 g/ha: 125 g ai/ha
From the text: as §1

[5] = tested on: johnsongrass (Sorghum halepense); details: Sorghum halepense; for pest or weed control at 16 g/ha: 16 g ai/ha; for pest or weed control at 31 g/ha: 31 g ai/ha; for pest or weed control at 62 g/ha: 62 g ai/ha; for pest or weed control at 125 g/ha: 125 g ai/ha
From the text: as §1

[6] = tested on: blackgrass (Alopecurus myosuroides); details: Alopecurus myosuroides; for pest or weed control at 16 g/ha: 16 g ai/ha; for pest or weed control at 31 g/ha: 31 g ai/ha; for pest or weed control at 62 g/ha: 62 g ai/ha; for pest or weed control at 125 g/ha: 125 g ai/ha
From the text: as §1

corn (Zea mays) = details: Zea mays; for Corn plant response rating (crop injury, 0 = no effect, 100 = complete kill) at 62 g/ha: 62 g ai/ha
From the text: as §1

[7] = tested on: giant foxtail (Setaria faberii); details: Setaria faberi; for pest or weed control at 16 g/ha: 16 g ai/ha; for pest or weed control at 31 g/ha: 31 g ai/ha; for pest or weed control at 62 g/ha: 62 g ai/ha; for pest or weed control at 125 g/ha: 125 g ai/ha
From the text: as §1

[8] = tested on: Italian ryegrass (Lolium multiflorum); details: Lolium multiflorum; for pest or weed control at 16 g/ha: 16 g ai/ha; for pest or weed control at 31 g/ha: 31 g ai/ha; for pest or weed control at 62 g/ha: 62 g ai/ha; for pest or weed control at 125 g/ha: 125 g ai/ha
From the text: as §1

[9] = tested on: barnyardgrass (Echinochloa crus-galli); details: Echinochloa crus-galli; for pest or weed control at 16 g/ha: 16 g ai/ha; for pest or weed control at 16 g/ha / pest or weed control at 31 g/ha: scale 0 to 100 (0 no effect, 100 complete control); for pest or weed control at 31 g/ha: 31 g ai/ha; for pest or weed control at 62 g/ha: 62 g ai/ha; for pest or weed control at 125 g/ha: 125 g ai/ha
From the text: as §1

[10] = post-emergence, Postemergence, scale 0 to 100 (0 no effect, 100 complete control), read-out: Velvetleaf plant response rating
[11] = post-emergence, Postemergence, scale 0 to 100, 0 no effect, 100 complete control, read-out: Plant response rating, Velvetleaf
[12] = pre-emergence, Preemergence, scale 0 to 100 (0 no effect, 100 complete control), read-out: Plant response rating, Velvetleaf
[13] = post-emergence, Postemergence, scale 0 to 100 (0 no effect, 100 complete control), read-out: Wheat plant response rating
[14] = post-emergence, Postemergence, scale 0 to 100, 0 no effect, 100 complete control, read-out: Plant response rating, Wheat
[15] = pre-emergence, Preemergence, scale 0 to 100 (0 no effect, 100 complete control), read-out: Plant response rating, Wheat
[16] = post-emergence, Postemergence, scale 0 to 100 (0 no effect, 100 complete control), read-out: Johnsongrass plant response rating
[17] = post-emergence, Postemergence, scale 0 to 100, 0 no effect, 100 complete control, read-out: Plant response rating, Johnsongrass
[18] = pre-emergence, Preemergence, scale 0 to 100 (0 no effect, 100 complete control), read-out: Plant response rating, Johnsongrass
[19] = post-emergence, Postemergence, scale 0 to 100 (0 no effect, 100 complete control), read-out: Blackgrass plant response rating
[20] = post-emergence, Postemergence, scale 0 to 100, 0 no effect, 100 complete control, read-out: Plant response rating, Blackgrass
[21] = pre-emergence, Preemergence, scale 0 to 100 (0 no effect, 100 complete control), read-out: Plant response rating, Blackgrass
[22] = post-emergence, Postemergence, scale 0 to 100 (0 no effect, 100 complete control), read-out: Foxtail, Giant plant response rating
[23] = post-emergence, Postemergence, scale 0 to 100, 0 no effect, 100 complete control, read-out: Plant response rating, Foxtail, Giant
[24] = pre-emergence, Preemergence, scale 0 to 100 (0 no effect, 100 complete control), read-out: Plant response rating, Foxtail, Giant
[25] = post-emergence, Postemergence, scale 0 to 100 (0 no effect, 100 complete control), read-out: Ryegrass, Italian plant response rating
[26] = post-emergence, Postemergence, scale 0 to 100, 0 no effect, 100 complete control, read-out: Plant response rating, Ryegrass, Italian
[27] = pre-emergence, Preemergence, scale 0 to 100 (0 no effect, 100 complete control), read-out: Plant response rating, Ryegrass, Italian
[28] = post-emergence, Postemergence, read-out: Barnyardgrass plant response rating
[29] = post-emergence, Postemergence, scale 0 to 100, 0 no effect, 100 complete control, read-out: Plant response rating, Barnyardgrass
[30] = pre-emergence, Preemergence, read-out: Plant response rating (scale 0 to 100), Barnyardgrass
[31] = pre-emergence, Preemergence, read-out: Plant response rating, Barnyardgrass

FC(F)c1cc(-c2ccccc2Oc2ncc(Cl)cn2)on1 [Compound 53, 5-chloro-2-[2-[3-(difluoromethyl)-5-isoxazolyl]phenoxy]pyrimidine]
pest or weed control at 31 g/ha ([1]; 31 g ai/ha): 95%
pest or weed control at 62 g/ha ([1]; 62 g ai/ha): 100%
pest or weed control at 16 g/ha [2, 10]: 55%
pest or weed control at 31 g/ha [2, 10]: 60%
pest or weed control at 62 g/ha [2, 11]: 70%
pest or weed control at 125 g/ha [2, 11]: 100%
pest or weed control at 125 g/ha ([2]; pre-emergence, Preemergence, read-out: Plant response rating (scale 0 to 100), Velvetleaf): 100%
pest or weed control at 16 g/ha [2, 12]: 100%
pest or weed control at 31 g/ha [2, 12]: 100%
pest or weed control at 62 g/ha [2, 12]: 100%
pest or weed control at 125 g/ha ([3]; 125 g ai/ha, read-out: Plant response rating (scale 0 to 100), Nutsedge, Yellow): 5%
pest or weed control at 16 g/ha ([3]; 16 g ai/ha, scale 0 to 100 (0 no effect, 100 complete control), read-out: Plant response rating, Nutsedge, Yellow): 20%
pest or weed control at 31 g/ha ([3]; 31 g ai/ha, scale 0 to 100 (0 no effect, 100 complete control), read-out: Plant response rating, Nutsedge, Yellow): 0%
pest or weed control at 62 g/ha ([3]; 62 g ai/ha, scale 0 to 100 (0 no effect, 100 complete control), read-out: Plant response rating, Nutsedge, Yellow): 0%
plant injury at 16 g/ha [4, 13]: 0%
plant injury at 31 g/ha [4, 13]: 0%
plant injury at 62 g/ha [4, 14]: 0%
plant injury at 125 g/ha [4, 14]: 0%
plant injury at 125 g/ha ([4]; pre-emergence, Preemergence, read-out: Plant response rating (scale 0 to 100), Wheat): 5%
plant injury at 16 g/ha [4, 15]: 0%
plant injury at 31 g/ha [4, 15]: 0%
plant injury at 62 g/ha [4, 15]: 0%
pest or weed control at 16 g/ha [5, 16]: 0%
pest or weed control at 31 g/ha [5, 16]: 0%
pest or weed control at 62 g/ha [5, 17]: 5%
pest or weed control at 125 g/ha [5, 17]: 5%
pest or weed control at 125 g/ha ([5]; pre-emergence, Preemergence, read-out: Plant response rating (scale 0 to 100), Johnsongrass): 55%
pest or weed control at 16 g/ha [5, 18]: 0%
pest or weed control at 31 g/ha [5, 18]: 0%
pest or weed control at 62 g/ha [5, 18]: 35%
pest or weed control at 16 g/ha [6, 19]: 5%
pest or weed control at 31 g/ha [6, 19]: 40%
pest or weed control at 62 g/ha [6, 20]: 20%
pest or weed control at 125 g/ha [6, 20]: 30%
pest or weed control at 125 g/ha ([6]; pre-emergence, Preemergence, read-out: Plant response rating (scale 0 to 100), Blackgrass): 95%
pest or weed control at 16 g/ha [6, 21]: 5%
pest or weed control at 31 g/ha [6, 21]: 25%
pest or weed control at 62 g/ha [6, 21]: 90%
plant injury at 16 g/ha (corn (Zea mays); post-emergence, Postemergence, 16 g ai/ha, scale 0 to 100 (0 no effect, 100 complete control), read-out: Corn plant response rating): 0%
plant injury at 31 g/ha (corn (Zea mays); post-emergence, Postemergence, 31 g ai/ha, scale 0 to 100 (0 no effect, 100 complete control), read-out: Corn plant response rating): 0%
Corn plant response rating (crop injury, 0 = no effect, 100 = complete kill) at 62 g/ha (corn (Zea mays); post-emergence, Postemergence, scale 0 to 100, 0 no effect, 100 complete control): 0%
Corn plant response rating (crop injury, 0 = no effect, 100 = complete kill) at 125 g/ha (corn (Zea mays); post-emergence, Postemergence, 125 g ai/ha, scale 0 to 100, 0 no effect, 100 complete control): 0%
plant injury at 125 g/ha (corn (Zea mays); pre-emergence, Preemergence, 125 g ai/ha, read-out: Plant response rating (scale 0 to 100), Corn): 5%
Corn plant response rating (crop injury, 0 = no effect, 100 = complete kill) at 16 g/ha (corn (Zea mays); pre-emergence, Preemergence, 16 g ai/ha, scale 0 to 100 (0 no effect, 100 complete control)): 5%
Corn plant response rating (crop injury, 0 = no effect, 100 = complete kill) at 31 g/ha (corn (Zea mays); pre-emergence, Preemergence, 31 g ai/ha, scale 0 to 100 (0 no effect, 100 complete control)): 10%
Corn plant response rating (crop injury, 0 = no effect, 100 = complete kill) at 62 g/ha (corn (Zea mays); pre-emergence, Preemergence, scale 0 to 100 (0 no effect, 100 complete control)): 100%
pest or weed control at 16 g/ha [7, 22]: 40%
pest or weed control at 31 g/ha [7, 22]: 20%
pest or weed control at 62 g/ha [7, 23]: 25%
pest or weed control at 125 g/ha [7, 23]: 30%
pest or weed control at 125 g/ha ([7]; pre-emergence, Preemergence, read-out: Plant response rating (scale 0 to 100), Foxtail, Giant): 100%
pest or weed control at 16 g/ha [7, 24]: 10%
pest or weed control at 31 g/ha [7, 24]: 85%
pest or weed control at 62 g/ha [7, 24]: 98%
pest or weed control at 16 g/ha [8, 25]: 0%
pest or weed control at 31 g/ha [8, 25]: 5%
pest or weed control at 62 g/ha [8, 26]: 5%
pest or weed control at 125 g/ha [8, 26]: 5%
pest or weed control at 125 g/ha ([8]; pre-emergence, Preemergence, read-out: Plant response rating (scale 0 to 100), Ryegrass, Italian): 60%
pest or weed control at 16 g/ha [8, 27]: 0%
pest or weed control at 31 g/ha [8, 27]: 10%
pest or weed control at 62 g/ha [8, 27]: 15%
pest or weed control at 16 g/ha [9, 28]: 5%
pest or weed control at 31 g/ha [9, 28]: 10%
pest or weed control at 62 g/ha [9, 29]: 25%
pest or weed control at 125 g/ha [9, 29]: 35%
pest or weed control at 62 g/ha [9, 30]: 40%
pest or weed control at 125 g/ha [9, 30]: 95%
pest or weed control at 16 g/ha [9, 31]: 0%
pest or weed control at 31 g/ha [9, 31]: 5%
